How the values were obtained:
VEGF = VEGF production by human peripheral blood monocytes (ELISA, real-time PCR); type: cell-based; details: FIG. 11C
Method: Human peripheral blood mononuclear cells (PBMCs) were isolated from fresh peripheral blood leukocyte source packs (American Red Cross, Columbus Ohio) by density gradient centrifugation over Lymphocyte Separation Medium (Cellgro). Monocytes were purified from total PBMCs by layering over FBS. Monocytes were cultured in endotoxin-free RPMI-1640 supplemented with 1% fetal bovine serum (FBS), 0.1% human serum albumin (HSA), and 10 μg/mL of the endotoxin inhibitor polymyxin B. In some experiments, freshly isolated monocytes were differentiated into macrophages by three-day culture in media containing 10% FBS, 1% PSA (penicillin G sodium, streptomycin sulfate, and amphotericin B), and 20 ng/mL M-CSF. Macrophages were serum-starved for 2 hours prior to stimulation. Monocytes or monocyte-derived macrophages were treated for 24 hours with 10 ng/mL GM-CSF, 10 μM disclosed HIF-2α stabilizer, or an equivalent volume of the vehicle controls (PBS or DMSO, respectively). Cell-free culture supernatants were harvested and analyzed for VEGF or sVEGFR-1 by ELISA (R&D Systems).
Human monocytes were left untreated or were stimulated with 100 ng/mL GM-CSF at normoxia or at 0.5% O2. At various time-points, cells were harvested in Trizol reagent (Invitrogen) and RNA was extracted in chloroform and then purified using the RNeasy Minikit (Qiagen). In murine studies, organs harvested at the time of euthanasia were flash-frozen in liquid nitrogen, pulverized in liquid nitrogen, and then dissolved in Trizol. cDNA was generated from 1 μg of RNA using the Superscript First Strand Synthesis System (Invitrogen) and used for real-time PCR using previously described primers and SYBR Green PCR Master Mix (Applied Biosciences), according to the manufacturer's instructions. Data were analyzed according to the comparative threshold method and normalized against the β-actin internal control transcript. Results are semi-quantitative and represent the fold difference in transcript levels in a particular sample as compared with levels in untreated cells from the same donor.
VEGF protein was undetectable in the supernatants of GM-CSF-stimulated monocytes, due to neutralization of VEGF by sVEGFR-1 (FIG. 11C).
Since monocyte production of VEGF was dependent on HIF-1α, the inventors herein determined whether selective stabilization of HIF-1α via inhibition of PHD2 would increase monocyte production of VEGF but not sVEGFR-1. In order to make such determination, human peripheral blood monocytes were stimulated with GM-CSF in the presence of a selective inhibitor of PHD2 which results in the stabilization of HIF-1α.

B16F10 melanoma tumors = assay: Murine melanoma tumor model (B16F10 in C57BL/6 mice); type: in vivo; details: for tumor growth: FIG. 14A
Method: Mice were injected with 1×10^5 B16F10 murine melanoma cells murine subcutaneously on the left flank. Once tumors become palpable (approximately 5 days), mice were randomly allocated to receive treatment with either: 20% polyethylene glycol (PEG) in 5% […] (vehicle control for the disclosed HIF-2α stabilizer) and PBS (vehicle control for GM-CSF), 20% PEG and GM-CSF (100 ng per mouse in a 50 μL volume), the disclosed HIF-2α stabilizer (17.5 mg/kg in a 100 μL volume) and PBS, or the disclosed HIF-2α stabilizer and GM-CSF (same doses). The PBS and GM-CSF were administered intratumorally, while the 20% PEG and the disclosed HIF-2α stabilizer were administered intraperitoneally. Mice were treated 3 times per week until tumors reached a size of 20 mm in any dimension (approximately 2.5 weeks), at which point mice were euthanized, in accordance with institutional policy. Tumor diameters were measured 3 times per week with calipers, and tumor volumes were calculated as follows: Tumor volume=0.5×[(large diameter)×(small diameter)^2].
6-8-week-old C57BL/6 mice were injected with 1×10^5 B16F10 murine melanoma cells murine subcutaneously on the left flank. Once tumors become palpable (approximately 5 days), mice were randomly allocated to receive treatment with either: 20% PEG-400 in 5% sucrose (vehicle for disclosed HIF-2α stabilizer) and PBS (vehicle for GM-CSF), 20% PEG-400 and GM-CSF (100 ng per mouse in a 50 μL volume), disclosed HIF-2α stabilizer (17.5 mg/kg mouse weight in a 100 μL volume) and PBS, or the disclosed HIF-2α stabilizer and GM-CSF (same concentrations). The disclosed HIF-2α stabilizer (or the vehicle control) was administered intraperitoneally, while GM-CSF (or the vehicle control) was administered intratumorally. Mice were treated […] 3 times per week until tumors reached a size of 20 mm in any dimension (approximately 2.5 weeks), at which point mice were be euthanized, in accordance with institutional policy. Tumor diameters were measured 3 times per week with calipers, and tumor volumes will be calculated as follows: Tumor volume=0.5×[(large diameter)×(small diameter)^2]. For experiments analyzing the effect of neutralizing sVEGFR-1 in combination with disclosed HIF-2α stabilizer treatment, mice were treated intraperitoneally 3×/week with either disclosed HIF-2α stabilizer or vehicle control, and intratumorally with either 4 μg anti-VEGFR-1 neutralizing antibody (R&D Systems) or 4 μg polyclonal goat IgG isotype control (Santa Cruz Biotechnology) in a 50 μL volume. All protocols were approved by the Ohio State University Animal Care and Use Committee, and mice were treated in accordance with institutional guidelines for animal care.
The ANOVA test was used to compare independent measurements between multiple treatment groups. The data was log-transformed to normalize the variance across groups. P-values were adjusted using the Holm's procedure to conserve the type I error at 0.05 due to the multiple comparisons. For tumor growth data, changes in tumor volume over time were assessed via a longitudinal model. Tumor values were log-transformed, and estimated slopes (changes in tumor volume over time) were calculated with 95% confidence intervals. Estimated differences in tumor volume were calculated by a random-effects regression of the longitudinal data. For all analyses, p≦0.05 was considered statistically significant.
To confirm that the modulation of tumor growth and angiogenesis was due to sVEGFR-1 production in response to the disclosed HIF-2α stabilizer, mice were treated with the disclosed HIF-2α stabilizer in the presence or absence of an sVEGFR-1 neutralizing Ab.
6-8-week-old C57BL/6 mice or SCID mice were injected with 1×10^5 B16F10 murine melanoma cells or 1×10^6 A375 human melanoma cells, respectively, subcutaneously on the left flank. […]

SMILES: O=C(O)CNC(=O)c1ncc(-c2cccc(F)c2)cc1O [disclosed HIF-2α stabilizer, {[5-(3-Fluorophenyl)-3-hydroxypyridine-2-carbonyl]amino}acetic acid]
- VEGF production, transcript levels by real-time PCR (VEGF; GM-CSF alone vs. GM-CSF and stabilizer, p=0.556): no difference
- production of VEGF protein (free VEGF ELISA) (VEGF; same supernatants as sVEGFR-1, 10 μM stabilizer, p=0.133): did not significantly increase
- tumor growth (tumor volume) (B16F10 melanoma tumors; FIG. 3, stabilizer 17 mg/kg I.P., GM-CSF 100 ng per mouse I.T., 3 times per week, vs. PBS control): reduces tumor growth
- increase in median survival (B16F10 melanoma tumors; FIG. 12B, median survival defined as the time to a tumor diameter of 20 mm, 17.5 mg/kg intraperitoneal 3x/week, p=0.023): 3 days
- average tumor volumes vs. vehicle controls (B16F10 melanoma tumors; day 16 of treatment, GM-CSF 100 ng/mouse intratumoral or stabilizer 17.5 mg/kg intraperitoneal, 3x/week, each p<0.001): significantly smaller
- tumor growth (B16F10 melanoma tumors; mice also treated with the anti-sVEGFR-1 neutralizing antibody, p=0.245): no effect on tumor growth
- tumor growth (B16F10 melanoma tumors; mice treated with an isotype control antibody, p<0.001): decreased tumor growth

Source: patent US8865748B2, “Compounds and compositions for stabilizing hypoxia inducible factor-2 alpha as a method for treating cancer” (Akebia Therapeutics Inc., priority 2011, dated 2014)
